Among the data in patent US12678446B2 (PFIZER INC., priority 2020, dated 2026) are CC50 and EC50 values, retold here.

One series in a line: cell toxicity CC50. Format: cell-based. The following applies: human; Hep-G2 cells; mean of at least two experiments; read-out: Cell Cytotoxicity CC50.
In series [1] the test system is RSV (RSV A2 ECACC, 0709161v). In words: RSV plaque reduction assay. Format: cell-based, respiratory syncytial virus. As to conditions: human respiratory syncytial virus, HepG2, read-out: RSV A2 Plaque EC50, RSV A2 in Hep-G2 cells; mean of at least two experiments unless noted (n = 1). The gist of the method:
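Eight-point compound dilutions were premixed with RSV A2 (100 PFU/well) and applied to confluent Hep-G2 cells for 2 h, followed by a 2-day incubation at 37° C. under compound-containing 0.8% CMC overlay. EC50 comes from immunostained plaque counts relative to untreated virus wells, averaged over ≥2 runs.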

Regarding `Cc1ccc(-c2nn3c(c2C(=O)N[C@H]2N=C(c4ccccc4)c4cccc(F)c4NC2=O)O[C@H](C)CC3)cn1` [Example 77, (5R)-5-Methyl-2-(6-methylpyridin-3-yl)-N-[(3S)-9-fluoro-2-oxo-5-phenyl-1,3-dihydro-1,4-benzodiazepin-3-yl]-6,7-dihydro-5H-pyrazolo[5,1-b][1,3]oxazine-3-carboxamide], the CC50 in “cell toxicity CC50” was > 25000 nM. The EC50 in series [1] came to 159 nM.
As to `C[C@H]1CCn2nc(-c3cnn(C4CCOCC4)c3)c(C(=O)N[C@H]3N=C(c4ccccc4)c4cccc(F)c4NC3=O)c2O1` [Example 156, (5S)-N-[(3S)-9-fluoro-2-oxo-5-phenyl-1,3-dihydro-1,4-benzodiazepin-3-yl]-5-methyl-2-[1-(oxan-4-yl)pyrazol-4-yl]-6,7-dihydro-5H-pyrazolo[5,1-b][1,3]oxazine-3-carboxamide], the CC50 in the series “cell toxicity CC50” was > 25000 nM. Besides, the EC50 in series [1] stood at 39 nM.
Regarding `CC(C)Nc1ccc(-c2nn3c(c2C(=O)N[C@H]2N=C(c4ccccc4)c4cccc(F)c4NC2=O)OCCC3)cn1` [Example 19, N-[(3S)-9-fluoro-2-oxo-5-phenyl-1,3-dihydro-1,4-benzodiazepin-3-yl]-2-[6-(propan-2-ylamino)pyridin-3-yl]-6,7-dihydro-5H-pyrazolo[5,1-b][1,3]oxazine-3-carboxamide], the cytotoxic concentration (CC50) in the series “cell toxicity CC50” was > 25000 nM. Moreover, the EC50 in series [1] is 31 nM.
On to `Cc1cnc(F)c(-c2nn3c(c2C(=O)N[C@H]2N=C(c4ccccc4)c4cccc(F)c4NC2=O)OCCC3)c1` [Example 43, 2-(2-Fluoro-5-methylpyridin-3-yl)-N-[(3S)-9-fluoro-2-oxo-5-phenyl-1,3-dihydro-1,4-benzodiazepin-3-yl]-6,7-dihydro-5H-pyrazolo[5,1-b][1,3]oxazine-3-carboxamide], for which, in “cell toxicity CC50”, the half-maximal cytotoxic concentration (CC50) was > 25000 nM. In addition, in series [1], the EC50 worked out at 101 nM.
Taken in the same sequence, the figures for `COc1cccc(F)c1-c1nn2c(c1C(=O)N[C@H]1N=C(c3ccccc3)c3cccc(F)c3NC1=O)OCCC2` [Example 139, 2-(2-Fluoro-6-methoxyphenyl)-N-[(3S)-9-fluoro-2-oxo-5-phenyl-1,3-dihydro-1,4-benzodiazepin-3-yl]-6,7-dihydro-5H-pyrazolo[5,1-b][1,3]oxazine-3-carboxamide] were > 25000 nM and 66 nM.
Taken in the same sequence, the figures for `CN(CC1COc2c(C(=O)N[C@H]3N=C(c4ccccc4)c4cccc(F)c4NC3=O)c(-c3ccccc3F)nn2C1)C1CCOCC1` (stereo partly drawn) [Example 168, N-[(3S)-9-fluoro-2-oxo-5-phenyl-1,3-dihydro-1,4-benzodiazepin-3-yl]-2-(2-fluorophenyl)-6-[[methyl(oxan-4-yl)amino]methyl]-6,7-dihydro-5H-pyrazolo[5,1-b][1,3]oxazine-3-carboxamide] were > 25000 nM and 104 nM.
In the same order, the values of `C[C@@H]1CCn2nc(Nc3ccccc3)c(C(=O)N[C@H]3N=C(c4ccccc4)c4ccccc4NC3=O)c2O1` [Example 96, (5R)-2-Anilino-5-methyl-N-[(3S)-2-oxo-5-phenyl-1,3-dihydro-1,4-benzodiazepin-3-yl]-6,7-dihydro-5H-pyrazolo[5,1-b][1,3]oxazine-3-carboxamide] are > 25000 nM and 464 nM.
Consider `C[C@@H]1CCn2nc(-c3ccc(F)cc3F)c(C(=O)N[C@H]3N=C(c4ccccc4)c4cccc(F)c4NC3=O)c2O1` [Example 82, (5R)-2-(2,4-Difluorophenyl)-5-methyl-N-[(3S)-9-fluoro-2-oxo-5-phenyl-1,3-dihydro-1,4-benzodiazepin-3-yl]-6,7-dihydro-5H-pyrazolo[5,1-b][1,3]oxazine-3-carboxamide], for which, in the series “cell toxicity CC50”, the CC50 was > 25000 nM. Further, the EC50 in series [1] worked out at 31 nM.
Taken in the same sequence, the figures for `O=C(N[C@H]1N=C(c2ccccc2)c2ccccc2NC1=O)c1c(-c2ccccc2F)nn2c1OCC1(COC1)C2` [Example 29] were > 25000 nM and 78 nM.
`C[C@@H]1CCn2nc(-c3ccc(CO)cc3F)c(C(=O)N[C@H]3N=C(c4ccccc4)c4ccccc4NC3=O)c2O1` [Example 154, (5R)-2-[2-Fluoro-4-(hydroxymethyl)phe-nyl]-5-methyl-N-[(3S)-2-oxo-5-phenyl-1,3-dihydro-1,4-benzodiazepin-3-yl]-6,7-dihydro-5H-pyrazolo[5,1-b][1,3]oxazine-3-carboxamide]: the CC50 in the series “cell toxicity CC50” was > 25000 nM. In series [1], the EC50 turned out to be 91 nM.
As for `CC(C)C1COc2c(C(=O)N[C@H]3N=C(c4ccccc4)c4cccc(F)c4NC3=O)c(-c3ccccc3F)nn2C1` (stereo partly drawn) [Example 12, N-[(3S)-9-Fluoro-2-oxo-5-phenyl-2,3-dihydro-1H-1,4-benzodiazepin-3-yl]-2-(2-flurophenyl)-6-(propan-2-yl)-5H,6H,7H-pyrazolo[3,2-b][1,3]oxazine-3-carboxamide], the CC50 in the series “cell toxicity CC50” is > 25000 nM. Besides, in series [1], the EC50 came out at 39 nM.
Consider `CCn1cc(-c2nn3c(c2C(=O)N[C@H]2N=C(c4ccccc4)c4cccc(F)c4NC2=O)O[C@H](C)CC3)cn1` [Example 84, (5R)-2-(1-Ethylpyrazol-4-yl)-N-[(3S)-9-fluoro-2-oxo-5-phenyl-1,3-dihydro-1,4-benzodiazepin-3-yl]-5-methyl-6,7-dihydro-5H-pyrazolo[5,1-b][1,3]oxazine-3-carboxamide], for which the CC50 in the series “cell toxicity CC50” is > 25000 nM. Moreover, the EC50 in series [1] was 70 nM.
`CC(C)Nc1ccc(-c2nn3c(c2C(=O)N[C@H]2N=C(c4ccccc4)c4cccc(F)c4NC2=O)O[C@H](C)CC3)cn1` [Example 67, (5R)-N-[(3S)-9-fluoro-2-oxo-5-phenyl-1,3-dihydro-1,4-benzodiazepin-3-yl]-2-[6-(isopropylamino)-3-pyridyl]-5-methyl-6,7-dihydro-5H-pyrazolo[4,1-b][1,3]oxazine-3-carboxamide]: the CC50 in “cell toxicity CC50” is > 25000 nM. The concentration for a half-maximal effect (EC50) in series [1] stood at 19 nM.
In the same order, the values of `CN(CC1COc2c(C(=O)N[C@H]3N=C(c4ccccc4)c4cccc(F)c4NC3=O)c(-c3ccccc3F)nn2C1)C1COC1` (stereo partly drawn) [Example 169, N-[(3S)-9-fluoro-2-oxo-5-phenyl-1,3-dihydro-1,4-benzodiazepin-3-yl]-2-(2-fluorophenyl)-6-[[methyl(oxetan-3-yl)amino]methyl]-6,7-dihydro-5H-pyrazolo[5,1-b][1,3]oxazine-3-carboxamide] are > 25000 nM and 114 nM.
With `O=C(N[C@H]1N=C(c2ccccc2)c2cccc(F)c2NC1=O)c1c(-c2c(F)cccc2F)nn2c1OC(CO)CC2` (single isomer, unassigned) [Example 189-1, (5R*)-2-(2,6-Difluorophenyl)-N-[(3S)-9-fluoro-2-oxo-5-phenyl-1,3-dihydro-1,4-benzodiazepin-3-yl]-5-(hydroxymethyl)-6,7-dihydro-5H-pyrazolo[5,1-b][1,3]oxazine-3-carboxamide], the CC50 in the series “cell toxicity CC50” is > 25000 nM. In series [1], the half-maximal effective concentration (EC50) is 41 nM.
In the same order, the values of `CCn1ccc(-c2nn3c(c2C(=O)N[C@H]2N=C(c4ccccc4)c4cccc(F)c4NC2=O)O[C@H](C)CC3)n1` [Example 68, (5R)-2-(1-Ethylpyrazol-3-yl)-N-[(3S)-9-fluoro-2-oxo-5-phenyl-1,3-dihydro-1,4-benzodiazepin-3-yl]-5-methyl-6,7-dihydro-5H-pyrazolo[5,1-b][1,3]oxazine-3-carboxamide] are > 25000 nM and 307 nM.
